Article PMC9123836 (Bioorganic & Medicinal Chemistry, 2022)

Legend:
[1] = system: SARS-CoV-2 spike pseudovirus; assay: organism not typed; format: cell-based
LO2 cells = assay: cytotoxicity against normal cells; format: cell-based, human; conditions: at the 100 µM level; MTT, 72 h
α-glucosidase [2] = biological target: T1, α-glucosidase (Saccharomyces cerevisiae, UniProt P53341); assay: enzyme kinetic study; format: biochemical; conditions: Lineweaver-Burk plot
α-glucosidase [3] = biological target: T1, α-glucosidase; assay: in vitro α-glucosidase inhibitory activity; format: biochemical; conditions: mean ± SD (n = 3); test concentration not given

T1 sequence (P53341 whole entry): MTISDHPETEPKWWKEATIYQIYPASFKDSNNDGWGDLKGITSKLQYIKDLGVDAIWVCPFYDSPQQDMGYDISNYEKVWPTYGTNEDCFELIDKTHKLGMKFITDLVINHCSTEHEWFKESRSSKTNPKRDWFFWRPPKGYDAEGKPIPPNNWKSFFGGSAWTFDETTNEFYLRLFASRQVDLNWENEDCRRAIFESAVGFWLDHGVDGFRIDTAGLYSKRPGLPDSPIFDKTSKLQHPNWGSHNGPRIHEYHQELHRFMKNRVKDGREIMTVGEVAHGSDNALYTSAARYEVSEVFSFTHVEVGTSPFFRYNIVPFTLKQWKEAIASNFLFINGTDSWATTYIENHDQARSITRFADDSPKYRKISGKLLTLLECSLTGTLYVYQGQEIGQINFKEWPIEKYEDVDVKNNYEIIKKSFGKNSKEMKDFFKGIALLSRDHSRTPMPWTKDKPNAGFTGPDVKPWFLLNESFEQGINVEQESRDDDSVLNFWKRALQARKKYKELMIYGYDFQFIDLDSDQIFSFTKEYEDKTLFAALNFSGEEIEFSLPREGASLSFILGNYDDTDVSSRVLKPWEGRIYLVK

Cc1cc(-c2ccc(/N=N/c3ccc4c(S(=O)(=O)O)cc(S(=O)(=O)O)c(N)c4c3O)c(C)c2)ccc1/N=N/c1ccc2c(S(=O)(=O)O)cc(S(=O)(=O)O)c(N)c2c1O [Evans blue, reference compound]
IC50 ([1]; HEK293, read-out: IC50 (µM) against pseudovirus entry): 22 ± 1.98 µM

C=CCc1cc(CSc2nnc(-c3ccccc3)o2)c(O)c(-c2ccc(O)c(CC=C)c2)c1 [Compound 9a]
inhibition of SARS-CoV-2 pseudovirus entry ([1]; at 100 μM): almost completely inhibited
survival rates of LO2 cells (LO2 cells): above 80%

C=CCc1cc(-c2cc(CC=C)c3oc(SCc4nnc(-c5cccc(C)c5)o4)nc3c2)c2oc(SCc3nnc(-c4cccc(C)c4)o3)nc2c1 [Compound 7l]
survival rates of LO2 cells (LO2 cells): above 80%
inhibition mode towards α-glucosidase (α-glucosidase [2]): noncompetitive α-glucosidase inhibitor

C=CCc1cc(CSc2nnc(-c3cccnc3)o2)c(O)c(-c2ccc(O)c(CC=C)c2)c1 [Compound 9r]
survival rates of LO2 cells (LO2 cells): above 80%

C[C@H]1O[C@H](O[C@H]2[C@H](O)[C@@H](O)[C@@H](O[C@H]3[C@H](O)[C@@H](O)C(O)O[C@@H]3CO)O[C@@H]2CO)[C@H](O)[C@@H](O)[C@@H]1N[C@H]1C=C(CO)[C@@H](O)[C@H](O)[C@H]1O (stereo partly shown) [acarbose]
Inhibition rate (%) (α-glucosidase [3]): 96.4 ± 0.5%
